Laboratory results as given in patent US20060094645A1, “Method for defining and treating chemically-induced immune disorders using tumor necrosis factor (TFNalpha), interleukin-1 (lL-1), and interleulin-6R(lL-6R) antagonists” (priority 2004, published 2006).

Biological target: T1, TNF (Homo sapiens, UniProt P01375)
T1 construct: endogenous in cells; host or cells: the patients' own TNF in vivo
Test: Case report: Arthritis and Vasculitis associated with silicone breast implants, anti-TNF treatment
Type: in vivo
Conditions: patient after implant removal; earlier treatment for over 20 years with corticosteroids and methotrexate

T1 sequence (P01375 77-233 limits assumed): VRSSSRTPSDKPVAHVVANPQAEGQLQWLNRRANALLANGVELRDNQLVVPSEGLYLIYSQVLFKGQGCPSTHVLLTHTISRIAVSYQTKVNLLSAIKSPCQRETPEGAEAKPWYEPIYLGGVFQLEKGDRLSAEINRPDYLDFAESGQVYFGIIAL

outcome of Arthritis and Vasculitis associated with silicone breast implants: without success
SMILES: CN(Cc1cnc2nc(N)nc(N)c2n1)c1ccc(C(=O)N[C@@H](CCC(=O)O)C(=O)O)cc1 [methotrexate]
